The values that follow come from patent publication US8759333B2, “Di-azetidinyl diamide as monoacylglycerol lipase inhibitors” (Janssen Pharmaceutica, NV, priority 2010, dated 2014).

Structures are written as SMILES. Changes are numbered by the printed parent chain. A value given as a limit tells only on which side of the number the result lay.

Assay [1] deals with T1, wild type MGL (wt-MGLL 6H-11-313) (Homo sapiens, UniProt Q99685).
T1 construct: purified wild type MGL (wt-MGLL 6H-11-313); 6H (hexahistidine) (N)
T1 sequence (Q99685 1-303): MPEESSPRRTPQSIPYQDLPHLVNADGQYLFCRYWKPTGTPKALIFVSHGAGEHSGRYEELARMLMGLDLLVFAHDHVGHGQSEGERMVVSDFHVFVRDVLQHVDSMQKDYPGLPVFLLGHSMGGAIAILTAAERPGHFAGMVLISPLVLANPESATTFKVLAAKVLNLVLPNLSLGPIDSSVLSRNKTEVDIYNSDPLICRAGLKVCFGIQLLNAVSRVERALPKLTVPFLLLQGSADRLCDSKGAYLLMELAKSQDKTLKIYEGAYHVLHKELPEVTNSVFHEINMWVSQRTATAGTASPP
In words: MGL Enzyme Activity Assay, purified wild type MGL, 4MU-B substrate. The assay is classed as biochemical. Particulars: wild type MGL 5 nM, 4MU-B 10 μM, 37° C.; read-out: MGL wild type inh IC50. As for the experimental part: All rate-based assays were performed in black 384-well polypropylene PCR microplates (Abgene) in a total volume of 30 μL. […] Final compound concentrations ranged from 17 to 0.0003 μM.
The IC50 values for the following compounds were determined using Microsoft Office Excel from a fit of the equation to the concentration-response plot of the fractional activity as a function of inhibitor concentration.

In another assay the target is T2, MGL (Rattus norvegicus, UniProt Q8R431).
T2 construct: one g rat brain was homogenized using a Polytron homogenizer; from tissue; host or cells: rat brain homogenate
T2 sequence (Q8R431 1-303): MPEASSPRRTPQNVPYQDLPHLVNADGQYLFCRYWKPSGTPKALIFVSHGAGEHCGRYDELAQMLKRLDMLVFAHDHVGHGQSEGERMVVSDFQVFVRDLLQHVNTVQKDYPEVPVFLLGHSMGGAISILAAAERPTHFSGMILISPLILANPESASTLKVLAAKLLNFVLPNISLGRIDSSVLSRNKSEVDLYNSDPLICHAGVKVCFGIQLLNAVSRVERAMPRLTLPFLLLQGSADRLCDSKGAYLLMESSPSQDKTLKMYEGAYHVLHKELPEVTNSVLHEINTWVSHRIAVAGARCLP
In words: 2-AG Accumulation Assay in rat brain homogenate. It is filed as biochemical. Particulars: percent of vehicle; for activity at 1 µM: compound @1 µM, read-out: Rat Brain 2AG % VehCntrl (%) @1 µM; for activity at 10 µM: compound @10 µM, read-out: Rat Brain 2AG % VehCntrl (%) @10 µM.

For a further assay, the target named is T3, mutant MGL (Homo sapiens, UniProt Q99685, L169S/L176S).
T3 construct: purified mutant MGL (mut-MGLL 11-313 L179S L186S)
T3 sequence (Q99685 1-303 L169S/L176S): T1 sequence (Q99685 1-303) with L169S, L176S
In words: MGL ThermoFluor Assay - Mutant. It is filed as binding. To be noted: 0.07 mg/ml mutant MGL, 100 μM ANS, pH 7.0. A digest of the protocol: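 Thermal-shift binding with 0.07 mg/ml L169S/L176S mutant MGL, 100 μM 1,8-ANS, 200 mM NaCl, 0.001% Tween-20, 50 mM PIPES pH 7.0, heated 40–90 °C at 1 °C/min.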

Assay [2] deals with CFA-Induced Paw Radiant Heat Hypersensitivity. In words: CFA-Induced Paw Radiant Heat Hypersensitivity. The assay is classed as in vivo. To be noted: po, 5 h; rat, 30 mg/kg p.o., HPβCD, group mean values, last time point 300 min (180 min for Cpd 17, 77); read-out: Method 1: peak % reversal. The protocol:
Each rat was placed in a test chamber on a warm glass surface and allowed to acclimate for approximately 10 min. A radiant thermal stimulus (beam of light) was focused through the glass onto the plantar surface of each hind paw in turn. The thermal stimulus was automatically shut off by a photoelectric relay when the paw was moved or when the cut-off time was reached (20 sec for radiant heat at ˜5 amps). An initial (baseline) response latency to the thermal stimulus was recorded for each animal prior to the injection of complete Freund's adjuvant (CFA). Twenty-four hours following intraplantar CFA injection, the response latency of the animal to the thermal stimulus was re-evaluated and compared to the animal's baseline response time. […] Immediately following the post-CFA latency assessment, the indicated test compound or vehicle was administered orally. Post-compound treatment withdrawal latencies were assessed at fixed time intervals, typically 30, 60, 120, 180, and 300 min.
The percent reversal (% R) of hypersensitivity was calculated in one of two different ways:
1) using group mean values or 2) using individual animal values. More specifically:
Method 1. For all compounds, the % R of hypersensitivity was calculated using the mean value for groups of animals at each time point according to the following formula: % reversal=[(group treatment response−group CFA response)/(group baseline response−group CFA response)]×100 Results were given for the maximum % reversal observed for each compound at any time point tested.
Method 2. For some compounds, the % R of hypersensitivity was calculated separately for each animal according to the following formula: % reversal=[(individual treatment response−individual CFA response)/(individual baseline response−individual CFA response)]×100.
Results are given as a mean of the maximum % reversal values calculated for each individual animal.

Assay [3] deals with T4, mutant MGL (mut-MGLL 11-313 L179S L186S) (Homo sapiens, UniProt Q99685, L169S/L176S).
T4 construct: purified mutant MGL (mut-MGLL 11-313 L179S L186S)
T4 sequence (Q99685 1-303 L169S/L176S): T1 sequence (Q99685 1-303) with L169S, L176S
The experiment in a line: MGL Enzyme Activity Assay, purified mutant MGL, 4MU-B substrate. It is filed as biochemical. Particulars: mutant MGL 5 nM, 4MU-B 10 μM, 37° C.; read-out: MGL mutant inh IC50. A digest of the protocol: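 Purified mutant MGL (5 nM final) with 10 μM 4MU-B in 20 mM PIPES pH 7.0, 150 mM NaCl, 0.001% Tween 20; compounds 17 to 0.0003 μM final. Fluorescence (ex 335/em 440 nm) followed 5 min at 37 °C; IC50 from fit of fractional activity versus inhibitor concentration.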

As for `Cc1c(C(=O)N2CC(N3CC(N4Cc5ccccc5C4=O)C3)C2)sc2cc(C(F)(F)F)ccc12` [Cpd 101, 2-(1′-{[3-Methyl-6-(trifluoromethyl)-1-benzothiophen-2-yl]carbonyl}-1,3′-biazetidin-3-yl)-2,3-dihydro-1H-isoindol-1-one], the IC50 in assay [1] was 6 nM. At MGL, the activity at 1 µM amounted to 534%. For the same molecule, at mutant MGL, the dissociation constant Kd was found to be 4 nM. In addition, the inhibition in vivo at 30 mg/kg in assay [2] stood at 6.1%.

Turning to `O=C(NC1CN(C2CN(C(=O)c3ccc(-c4ccc(C(F)(F)F)cc4)cc3)C2)C1)c1cscn1` [Cpd 14, N-(1′-{[4′-(Trifluoromethyl)biphenyl-4-yl]carbonyl}-1,3′-biazetidin-3-yl)-1,3-thiazole-4-carboxamide], the IC50 was found to be 27 nM in assay [3] and 9 nM in assay [1]. Moreover, the activity at 1 µM at MGL was determined as 187%. Further, binding on mutant MGL was put at a Kd of 86 nM.

As for `CS(=O)(=O)c1cccc(-c2ccc3sc(C(=O)N4CC(N5CC(N6Cc7ccccc7C6=O)C5)C4)cc3c2)c1` [Cpd 82, 2-[1′-({5-[3-(Methylsulfonyl)phenyl]-1-benzothiophen-2-yl}carbonyl)-1,3′-biazetidin-3-yl]-2,3-dihydro-1H-isoindol-1-one], the IC50 was found to be 22 nM in assay [3] and 16 nM in assay [1]. The activity at 1 µM at MGL came to 490%. This molecule also gave a Kd at mutant MGL of 105 nM.

For `O=C(NC1CN(C2CN(C(=O)c3sc4cc(C(F)(F)F)ccc4c3Cl)C2)C1)c1cscn1` [Cpd 51, N-(1′-{[3-Chloro-6-(trifluoromethyl)-1-benzothiophen-2-yl]carbonyl}-1,3′-biazetidin-3-yl)-1,3-thiazole-4-carboxamide], the IC50 in assay [3] and in assay [1] was less than 5 nM throughout. In addition, at MGL, the activity at 1 µM was 477%. The same molecule returned a Kd on mutant MGL of 2.2 nM.

With `O=C(NC1CN(C2CN(C(=O)c3cc4ccc(C(F)(F)F)cc4s3)C2)C1)c1cscn1` [Cpd 49, N-(1′-{[6-(Trifluoromethyl)-1-benzothiophen-2-yl]carbonyl}-1,3′-biazetidin-3-yl)-1,3-thiazole-4-carboxamide], the IC50 in assay [3] was less than 5 nM; in assay [1] it was 14 nM. Further, the activity at 1 µM on MGL was determined as 167%. This molecule gave a Kd at mutant MGL of 31.9 nM.

`O=C(c1sc2cc(-c3ccccc3)ccc2c1Cl)N1CC(N2CC(N3Cc4ccccc4C3=O)C2)C1` [Cpd 68, 2-{1′-[(3-Chloro-6-phenyl-1-benzothiophen-2-yl)carbonyl]-1,3′-biazetidin-3-yl}-2,3-dihydro-1H-isoindol-1-one]: the IC50 in assay [3] was 6 nM; in assay [1], less than 5 nM. The activity at 1 µM at MGL was 433%. The Kd at mutant MGL stood at 3.3 nM.

Regarding `O=C(c1sc2cc(-c3ccccc3)ccc2c1-c1ccccc1)N1CC(N2CC(N3Cc4ccccc4C3=O)C2)C1` [Cpd 74, 2-{1′-[(3,6-Diphenyl-1-benzothiophen-2-yl)carbonyl]-1,3′-biazetidin-3-yl}-2,3-dihydro-1H-isoindol-1-one], the IC50 in assay [3] is 12 nM; in assay [1], less than 5 nM. The activity at 1 µM at MGL came out at 323%. In addition, on mutant MGL, the Kd came to 1.3 nM.

As to `CS(=O)(=O)c1cccc(-c2ccc3cc(C(=O)N4CC(N5CC(N6Cc7ccccc7C6=O)C5)C4)sc3c2)c1` [Cpd 72, 2-[1′-({6-[3-(Methylsulfonyl)phenyl]-1-benzothiophen-2-yl}carbonyl)-1,3′-biazetidin-3-yl]-2,3-dihydro-1H-isoindol-1-one], the IC50 in assay [3] was 9 nM; in assay [1], less than 5 nM. Besides, the activity at 1 µM at MGL turned out to be 781%. On mutant MGL, the Kd is 33.2 nM.

In the case of `O=C(NC1CN(C2CN(C(=O)c3ccc(-c4ccc(C(F)(F)F)cc4)cc3)C2)C1)c1nccs1` [Cpd 12, N-(1′-{[4′-(Trifluoromethyl)biphenyl-4-yl]carbonyl}-1,3′-biazetidin-3-yl)-1,3-thiazole-2-carboxamide], the IC50 in assay [3] turned out to be 18 nM. For the same molecule, the IC50 in assay [1] is less than 5 nM. Besides, at MGL, the activity at 1 µM is 215% and the activity at 10 µM was 557%. Besides, at mutant MGL, the Kd is 51 nM.

As to `O=C(c1sc2cc(Br)ccc2c1Cl)N1CC(N2CC(N3Cc4ccccc4C3=O)C2)C1` [Cpd 73, 2-{1′-[(6-Bromo-3-chloro-1-benzothiophen-2-yl)carbonyl]-1,3′-biazetidin-3-yl}-2,3-dihydro-1H-isoindol-1-one], the IC50 was 12 nM in assay [3] and less than 5 nM in assay [1]. Besides, the activity at 1 µM at MGL was determined as 295%. In addition, the Kd at mutant MGL is 31.3 nM.

Take `O=C(NC1CN(C2CN(C(=O)c3sc4cc(C(F)(F)F)ccc4c3Cl)C2)C1)c1nccs1` [Cpd 50, N-(1′-{[3-Chloro-6-(trifluoromethyl)-1-benzothiophen-2-yl]carbonyl}-1,3′-biazetidin-3-yl)-1,3-thiazole-2-carboxamide]: the IC50 in assay [3] and in assay [1] was less than 5 nM throughout. For the same molecule, the activity at 1 µM at MGL stood at 460%. Besides, on mutant MGL, the Kd was 0.7 nM.

On to `O=C(NC1CN(C2CN(C(=O)c3ccc(-c4ccc(C(F)(F)F)s4)cc3)C2)C1)c1nccs1` [Cpd 9, N-[1′-({4-[5-(Trifluoromethyl)thiophen-2-yl]phenyl}carbonyl)-1,3′-biazetidin-3-yl]-1,3-thiazole-2-carboxamide], for which the IC50 in assay [3] turned out to be 13 nM. In addition, the concentration for half-maximal inhibition (IC50) in assay [1] was 506 nM. On MGL, the activity at 1 µM came to 193% and the activity at 10 µM is 160%. At mutant MGL, this molecule displayed a Kd of 14 nM.

Turning to `O=C(NC1CN(C2CN(C(=O)c3ccc4c(cnn4-c4ccccc4)c3)C2)C1)c1nccs1` [Cpd 52, N-{1′-[(1-Phenyl-1H-indazol-5-yl)carbonyl]-1,3′-biazetidin-3-yl}-1,3-thiazole-2-carboxamide], the IC50 in assay [3] and in assay [1] was less than 5 nM each time. Further, the activity at 1 µM on MGL was determined as 291%. Binding on mutant MGL was characterised by a dissociation constant (Kd) of 73.4 nM.

`O=C(NC1CN(C2CN(C(=O)c3ccc4c(ccn4-c4ccccc4)c3)C2)C1)c1nccs1` [Cpd 13, N-{1′-[(1-Phenyl-1H-indol-5-yl)carbonyl]-1,3′-biazetidin-3-yl}-1,3-thiazole-2-carboxamide]: the IC50 in assay [3] was 19 nM; in assay [1] it was less than 5 nM. Besides, the activity at 1 µM at MGL stood at 441%. This molecule also showed a Kd at mutant MGL of 50 nM.
